Source: patent publication US12186342B2, “Autologous irradiated whole cell tumor vaccines lentivirally engineered to express CD80, IL-15 and IL-15 receptor alpha” (The Regents of the University of California, priority 2016, dated 2025)

Key:
Assay type in all cases: in vivo, mice
32Dp210 leukemia = assay: Dose-finding studies of chemotherapeutic regimens in advanced 32Dp210 leukemia; settings: data not shown
Protocol: (§1) The major clinical application of an autologous AML vaccine strategy would be as post-remission immunotherapy to prolong relapse free survival in patients with MRD. To recapitulate this clinical setting, we developed a murine model of MRD for testing our vaccine. Initially, several chemotherapeutic regimens, previously shown to induce transient responses in 32Dp210 leukemia, were tested^48. […] A different strategy was therefore adopted for achieving post-remission MRD in mice with high leukemia burdens by lentivirally engineering a 32Dp210 cell line to express the herpes thymidine kinase (HSV-TK) suicide gene^36. Using this approach, treatment with ganciclovir (GCV) could be used to induce remission without the confounding immune and cytopenic effects of conventional chemotherapy^49. In this context, GCV treatment should not have a direct impact on leukemia-associated immune deviation, except as associated with reduction of tumor burden, since effects of GCV are primarily restricted to suppression of marrow proliferation, but not inhibition of immune function^50.

[1] = tested on: 32Dp210-luc-HSV-TK+ leukemia; assay: Minimal residual disease model: GCV remission induction
Protocol: FIG. 17A-FIG. 17C depict development of a minimal residual diseased (MRD) model in 32Dp210 leukemia. (FIG. 17A) In vivo bioluminescence analysis of effects of ganciclovir (GCV) treatment of 32Dp210-luc-HSV-TK+ leukemia. Mice inoculated IV with 32Dp210-luc-HSV-TK+ leukemia on day 0 were treated for 14 days with GCV (50 mg/kg) beginning at day 14. Left panel: Day 14 after tumor inoculation, Right panel: Day 28 after tumor inoculation and day 14 of GCV treatment. […] Mean photon counts+S.E.M. per animal are plotted on the y-axis after imaging at day 14 (white bars) and day 28 after tumor inoculation (gray bars). Uninjected controls (n=5) represent normal, non-tumor bearing mice injected with luciferin to establish background levels of in vivo bioluminescence used to define “complete remission”. […] Leukemic mice with tumor progression despite GCV administration (Non-responders, n=3) are depicted in the last two lanes on the right. […] Comparison of the percentage of 32Dp210-GFP+HSVTK+ cells in peripheral blood, spleen and bone marrow of responding mice (MRD). The percentage of GFP+ cells detected by flow cytometric analysis of blood (filled circle), spleen (open triangle), and bone marrow (filled diamonds) from each mouse achieving IVIS defined remission with MRD, are indicated on the Y axis. The mean for each group is designated by a horizontal line for each group as well as the S.E.M. Mice with MRD defined by semi-quantitative in vivo bioluminescence analyses had <5% leukemic cells in all tissues examined consistent with the clinical/pathological definition of leukemic remission.
(§2) At day 10 after IV injection of 1×10^5 32Dp210-luc cells, all mice had detectable leukemia by IVIS, and began a 14 day treatment (50 mg/kg/day) with Ganciclovir (GCV) (APP Pharmaceuticals, LLC, Schaumberg, IL). A higher dose of 100 mg GCV/kg/day was administered to confirm that GCV had minimal or no effects on blood counts (Table 1).
To validate this model, mice were treated daily with GCV once 32Dp210 leukemia was evident by IVIS. […] (FIG. 17A). […] To assess responses after GCV treatment, the frequency of 32Dp210-GFP+/HSV-TK+ cells in spleen, blood, and bone marrow were quantified by flow cytometric analysis (FIG. 17C). […] Lower numbers of GFP+ leukemia cells were detected in spleen after 14 days of GCV.

Effect of GCV on CBC = settings: after 2 weeks of treatment
Protocol: as §2, §1

[2] = tested on: 32Dp210-luc-HSV-TK+ leukemia; assay: Post-remission vaccination in the MRD model
Description: FIG. 18A-FIG. 18B depict the efficacy of the 32Dp210 vaccine as post-remission therapy to treat MRD. (FIG. 18A) In vivo bioluminescence analyses of 32Dp210-luc-HSV-TK leukemic mice undergoing GCV treatment with or without post-remission vaccination with 32Dp210-CD80-IL-15-IL-15Rα cells. Mice were inoculated with 1×10^5 32Dp210 cells on day 0 as indicated by the schema at the top of the figure. On day 10 mice underwent in vivo bioluminescence imaging and average photon counts per animal were plotted (upper set of bar graphs). N1-N5 represents normal, non-tumor bearing mice injected with luciferin on the same day, to establish background levels. Lanes 1-15 indicate mice inoculated with leukemia and subsequently treated with GCV according to the schema at the top of the figure. Gray bars in lanes 1-5 indicate IVIS analyses of mice that would receive 14 days GCV treatment and no further intervention; Black bars in lanes 6-15 depict IVIS analyses of mice treated with 14 days of GCV treatment that would be followed by serial vaccination with irradiated 32Dp210-IL-15/IL-15Rα/CD80 cells beginning at day 17. Lower panel of bar graphs depicts semi-quantitative IVIS studies after 5 days of GCV administration (day 15) in the same animals analyzed in the upper panel of bar graphs at day 10 after tumor inoculum. […]

| Structure (SMILES) | outcome of dose-finding studies in leukemic mice (32Dp210 leukemia) | mice showing remission ([1]; GCV begun on day 14 after tumor inoculation, read two weeks later (day 28)) | blasts in bone marrow ([1]; GCV-treated mice in remission) | GFP+ cells in BM ([1]; GCV-treated mice in remission, n=7/7) | GFP+ leukemia cells in spleen ([1]; after 14 days of GCV) | leukemic cells in all tissues examined ([1]; mice with MRD, blood, spleen, bone marrow) | Lymphocytes (Effect of GCV on CBC; 100 mg GCV/kg/day) | Monocytes (Effect of GCV on CBC; 100 mg GCV/kg/day) | Neutrophils (Effect of GCV on CBC; 100 mg GCV/kg/day) | White Blood Cells (Effect of GCV on CBC; 100 mg GCV/kg/day) | decline in WBC, neutrophils, hemoglobin, or monocytes (Effect of GCV on CBC) | number of peripheral lymphocytes (Effect of GCV on CBC; remained within the normal range) | relapse after remission ([2]; 14-day GCV with no further therapy) | response by in vivo bioluminescence ([2]; day 5 of GCV administration (day 15), 1×10^5 cells inoculated) |
| --- | --- | --- | --- | --- | --- | --- | --- | --- | --- | --- | --- | --- | --- | --- |
| Nc1ccn([C@@H]2O[C@H](CO)[C@@H](O)[C@@H]2O)c(=O)n1 [cytosine arabinoside] | either ineffective, or resulted in both toxicity and lethality | – | – | – | – | – | – | – | – | – | – | – | – | – |
| Nc1nc(O)c2ncn(COC(CO)CO)c2n1 [GCV, ganciclovir] | – | Seven of 10 | < 5% | < 0.5% | Lower numbers | < 5% | 2.036 ± 0.279 k/μL | 0.310 ± 0.0364 k/μL | 4.141 ± 0.580 k/μL | 6.638 ± 0.575 k/μL | no significant decline | only a small reduction | eventually relapsed | most of the leukemic mice had major responses |
